Patent publication US7157222B2, “Method of cryopreservation of tissues by vitrification” (Organ Recovery Systems, Inc., priority 1999, dated 2007)

Legend:
[1] = test system: rabbit jugular vein ring segments; test: Maximal contractile response of vein rings in vascular smooth muscle bath; type: cell-based; conditions: for Maximal Physiological Responses, Control: fresh vein rings (n = 15); for Maximal Physiological Responses, Control / Maximal Physiological Responses, Vitrified: Mean ± SEM; for Maximal Physiological Responses, % of corresponding fresh controls: vein rings vitrified with VS55 versus fresh vein rings; for Maximal Physiological Responses, Vitrified: vein rings vitrified with vitrification solution VS55 (n = 26)
Protocol: Vein rings, which are about 4 mm long segments of rabbit external jugular veins, are vitrified in VS55 by the method described above for longer external jugular vein segments, except that perfusion is not used. […] The baseline tension of all vein rings is adjusted to 0.25 to 0.75 g. Changes in tension are recorded by force transducers. After 1 hour of equilibration, the vein rings are pretested with potassium chloride for contraction. After rinsing with KH solution, the vein rings are equilibrated for another 30 minutes prior to the start of experiment. During a relaxation experiment, contraction of the vein rings is produced by 10^−6M norepinephrine and, after the contractile response plateaus, cumulative concentrations of acetylcholine (10^−10M to 10^−4M) are added to the bathing medium to induce the endothelium dependent relaxation response. In the current study, histamine, bradykinin, angiotensin II, and norepinephrine are tested in rabbit jugular vein ring segments vitrified with VS55 and fresh vein rings. Both histamine and bradykinin produce contraction in the vein via their local receptors. Norepinephrine acts directly on the adrenoceptor, while angiotensin II binds to AT receptors and acts through local renin-angiotensin systems.

artery ring segments = test: Maximal contractile response of artery rings; type: cell-based; conditions: for Maximal Physiological Responses, Vitrified: artery rings vitrified with VS55 (norepinephrine n = 37, phenylephrine n = 23); for Maximal Physiological Responses, Vitrified / Maximal Physiological Responses, Control: Mean ± SEM; for Maximal Physiological Responses, % of corresponding fresh controls: artery rings vitrified with VS55 versus fresh controls; for Maximal Physiological Responses, Control: fresh rings (norepinephrine n = 16, phenylephrine n = 12)
Protocol: Vein rings, which are about 4 mm long segments of rabbit external jugular veins, are vitrified in VS55 by the method described above for longer external jugular vein segments, except that perfusion is not used. After being rewarmed, the vein rings are mounted between two stainless steel wire hooks and suspended in a vascular smooth muscle bath containing 5 ml of Krebs Henseleit (KH) solution, which is gassed continuously with 95% O2 and 5% CO2 at 37° C. The baseline tension of all vein rings is adjusted to 0.25 to 0.75 g. Changes in tension are recorded by force transducers. After 1 hour of equilibration, the vein rings are pretested with potassium chloride for contraction. After rinsing with KH solution, the vein rings are equilibrated for another 30 minutes prior to the start of experiment. During a relaxation experiment, contraction of the vein rings is produced by 10^−6M norepinephrine and, after the contractile response plateaus, cumulative concentrations of acetylcholine (10^−10M to 10^−4M) are added to the bathing medium to induce the endothelium dependent relaxation response.
Artery rings are vitrified in VS55 by the method described above for vein rings. After being rewarmed, norepinephrine and phenylephrine are tested in artery ring segments vitrified with VS55 and fresh artery rings.

Molecule | Maximal Physiological Responses, Control [1] [g] | Maximal Physiological Responses, % of corresponding fresh controls [1] [%] | Maximal Physiological Responses, Vitrified [1] [g] | Maximal Physiological Responses, Vitrified (artery ring segments) [g] | Maximal Physiological Responses, % of corresponding fresh controls (artery ring segments) [%] | Maximal Physiological Responses, Control (artery ring segments) [g]
NCCc1c[nH]cn1 [Histamine, histamine] | 1.78 ± 0.19 | 87.1 | 1.55 ± 0.27 |  |  | 
NC[C@H](O)c1ccc(O)c(O)c1 [Norepinephrine, norepinephrine] | 0.99 ± 0.12 | 83.8 | 0.83 ± 0.14 | 2.58 ± 0.23 | 90.8 | 2.84 ± 0.38
CNC[C@H](O)c1cccc(O)c1 [Phenylephrine, phenylephrine] |  |  |  | 2.23 ± 0.29 | 88.3 | 2.53 ± 0.45
angiotensin II (DRVYIHPF; Angiotensin-2; UniProt P01019 25-32, looked up) | 0.58 ± 0.06 | 84.5 | 0.49 ± 0.09 |  |  | 
